Consider 5 compounds from ChEMBL document CHEMBL3045532, “Synthesis and evaluation of novel prodrugs of naproxen” (Med Chem Res, 2011).

The test system of data set [1] is Rattus norvegicus. The data set is described as follows: Anti-inflammatory activity in Rattus norvegicus Wistar (rat) assessed as inhibition of carrageenan-induced edema volume at 66.2 mg/kg, po measured after 90 min. Format: functional. As to conditions: 1.5 h. Background: In the carrageenan paw model, swelling and tenderness develop within hours.
The subject of data set [2] is Mus musculus. The experiment in a line: Analgesic activity in Mus musculus (mouse) assessed as inhibition of acetic acid-induced writhing at 66.2 mg/kg, po pretreated 1 hr before acetic acid challenge. Format: functional. For orientation: Writhing tests count abdominal constrictions after an irritant is injected.
For data set [3], the system named is Rattus norvegicus. The experiment in a line: Anti-inflammatory activity in Rattus norvegicus Wistar (rat) assessed as inhibition of carrageenan-induced edema volume at 66.2 mg/kg, po measured after 120 min. The format is functional. Conditions: 2 h.
For data set [4], the system named is Rattus norvegicus. The data set is described as follows: Anti-inflammatory activity in Rattus norvegicus Wistar (rat) assessed as inhibition of carrageenan-induced edema volume at 66.2 mg/kg, po measured after 30 min. The format is functional. Conditions: 0.5 h.
In data set [5] the test system is Rattus norvegicus. The experiment in a line: Anti-inflammatory activity in Rattus norvegicus Wistar (rat) assessed as inhibition of carrageenan-induced edema volume at 66.2 mg/kg, po measured after 60 min. Format: functional. Conditions: 1 h.
Data set [6] in a line: Prodrug conversion in phosphate buffer assessed as half-life for hydrolysis at pH 7.4. Format: physicochemical.
The test system of data set [7] is Rattus norvegicus. The experiment in a line: Anti-inflammatory activity in Rattus norvegicus Wistar (rat) assessed as inhibition of carrageenan-induced edema volume at 71.9 mg/kg, po measured after 30 min. Format: functional. Conditions: 0.5 h.
Data set [8] has as its system Rattus norvegicus. The experiment in a line: Anti-inflammatory activity in Rattus norvegicus Wistar (rat) assessed as inhibition of carrageenan-induced edema volume at 71.9 mg/kg, po measured after 90 min. The format is functional. As to conditions: 1.5 h.
The nature of data set [9]: Prodrug conversion in acetate buffer assessed as half-life for hydrolysis at pH 4. Format: physicochemical.
Data set [10] can be described thus: Prodrug conversion in acetate buffer assessed as half-life for hydrolysis at pH 3. The format is physicochemical.
A short description of data set [11]: Prodrug conversion in acetate buffer assessed as half-life for hydrolysis at pH 5. The format is physicochemical.
Data set [12] deals with Rattus norvegicus. The experiment in a line: Anti-inflammatory activity in Rattus norvegicus Wistar (rat) assessed as inhibition of carrageenan-induced edema volume at 71.9 mg/kg, po measured after 120 min. As to conditions: 2 h. Format: functional.
For data set [13], the system named is Mus musculus. The data set is described as follows: Analgesic activity in Mus musculus (mouse) assessed as inhibition of acetic acid-induced writhing at 71.9 mg/kg, po pretreated 1 hr before acetic acid challenge. Format: functional.
Data set [14] relates to Rattus norvegicus. The data set is described as follows: Anti-inflammatory activity in Rattus norvegicus Wistar (rat) assessed as inhibition of carrageenan-induced edema volume at 71.9 mg/kg, po measured after 60 min. The format is functional. Conditions: 1 h.
For data set [15], the system named is Rattus norvegicus. The data set is described as follows: Anti-inflammatory activity in Rattus norvegicus Wistar (rat) assessed as inhibition of carrageenan-induced edema volume at 67.4 mg/kg, po measured after 90 min. As to conditions: 1.5 h. The format is functional.
The subject of data set [16] is Rattus norvegicus. The data set is described as follows: Anti-inflammatory activity in Rattus norvegicus Wistar (rat) assessed as inhibition of carrageenan-induced edema volume at 67.4 mg/kg, po measured after 120 min. Conditions: 2 h. The format is functional.
Data set [17] deals with Rattus norvegicus. The data set is described as follows: Anti-inflammatory activity in Rattus norvegicus Wistar (rat) assessed as inhibition of carrageenan-induced edema volume at 67.4 mg/kg, po measured after 60 min. As to conditions: 1 h. The format is functional.
For data set [18], the system named is Mus musculus. The data set is described as follows: Analgesic activity in Mus musculus (mouse) assessed as inhibition of acetic acid-induced writhing at 67.4 mg/kg, po pretreated 1 hr before acetic acid challenge. Format: functional.
Data set [19] concerns Rattus norvegicus. The data set is described as follows: Gastrointestinal toxicity in Rattus norvegicus Wistar (rat) assessed as ulcer at 69.4 mg/kg, po. Format: organism-based. Also on record: dose 69.4 mg/kg, route oral. As to conditions: in vivo.
Data set [20] relates to Rattus norvegicus. The data set is described as follows: Anti-inflammatory activity in Rattus norvegicus Wistar (rat) assessed as inhibition of carrageenan-induced edema volume at 67.4 mg/kg, po measured after 30 min. Conditions: 0.5 h. The format is functional.
Data set [21] concerns Rattus norvegicus. The experiment in a line: Anti-inflammatory activity in Rattus norvegicus Wistar (rat) assessed as inhibition of carrageenan-induced edema volume at 67.0 mg/kg, po measured after 60 min. The format is functional. Conditions: 1 h.
Data set [22] deals with Mus musculus. The experiment in a line: Analgesic activity in Mus musculus (mouse) assessed as inhibition of acetic acid-induced writhing at 67 mg/kg, po pretreated 1 hr before acetic acid challenge. The format is functional.
Data set [23] concerns Rattus norvegicus. The experiment in a line: Anti-inflammatory activity in Rattus norvegicus Wistar (rat) assessed as inhibition of carrageenan-induced edema volume at 67.0 mg/kg, po measured after 90 min. The format is functional. As to conditions: 1.5 h.
The subject of data set [24] is Rattus norvegicus. The experiment in a line: Anti-inflammatory activity in Rattus norvegicus Wistar (rat) assessed as inhibition of carrageenan-induced edema volume at 67.0 mg/kg, po measured after 30 min. Format: functional. As to conditions: 0.5 h.
The test system of data set [25] is Rattus norvegicus. The experiment in a line: Anti-inflammatory activity in Rattus norvegicus Wistar (rat) assessed as inhibition of carrageenan-induced edema volume at 67.0 mg/kg, po measured after 120 min. Conditions: 2 h. The format is functional.
The test system of data set [26] is Rattus norvegicus. The data set is described as follows: Anti-inflammatory activity in Rattus norvegicus Wistar (rat) assessed as inhibition of carrageenan-induced edema volume at 64.7 mg/kg, po measured after 60 min. Format: functional. As to conditions: 1 h.
The subject of data set [27] is Rattus norvegicus. The data set is described as follows: Anti-inflammatory activity in Rattus norvegicus Wistar (rat) assessed as inhibition of carrageenan-induced edema volume at 64.7 mg/kg, po measured after 90 min. The format is functional. As to conditions: 1.5 h.
The subject of data set [28] is Rattus norvegicus. The experiment in a line: Anti-inflammatory activity in Rattus norvegicus Wistar (rat) assessed as inhibition of carrageenan-induced edema volume at 64.7 mg/kg, po measured after 120 min. Format: functional. As to conditions: 2 h.
Data set [29] concerns Mus musculus. The data set is described as follows: Analgesic activity in Mus musculus (mouse) assessed as inhibition of acetic acid-induced writhing at 64.7 mg/kg, po pretreated 1 hr before acetic acid challenge. Format: functional.
Data set [30] deals with Rattus norvegicus. The experiment in a line: Anti-inflammatory activity in Rattus norvegicus Wistar (rat) assessed as inhibition of carrageenan-induced edema volume at 64.7 mg/kg, po measured after 30 min. Conditions: 0.5 h. The format is functional.

With `COc1ccc2cc(C(C)C(=O)OCC(OC(C)=O)C(OC(C)=O)C(OC(C)=O)C(/C=N/[C@H](C(=O)O)[C@@H](C)O)OC(C)=O)ccc2c1` (stereo not given in full), the inhibition in vivo (as a rule, the share of the control response that was lost under treatment) at 66.2 mg/kg in data set [1] amounted to 39%; in data set [2] it was 60.4%; in data set [3] it was 58%; in [4], 18%; in [5], 24%.
As to `COc1ccc2cc(C(C)C(=O)OCC(OC(C)=O)C(OC(C)=O)C(OC(C)=O)C(/C=N/[C@@H](Cc3c[nH]c4ccccc34)C(=O)O)OC(C)=O)ccc2c1` (stereo not given in full), the t1/2 in data set [6] was determined as 18 h; in [9], 115 h; in [10], 88 h; in [11], 57 h. Also, the inhibition in vivo at 71.9 mg/kg in data set [7] worked out at 18%; in data set [8], 36%; in [12], 70%; in data set [13] it was 73.7%; in [14], 16%.
As to `COc1ccc2cc(C(C)C(=O)OCC(OC(C)=O)C(OC(C)=O)C(OC(C)=O)C(/C=N/[C@@H](CC(C)C)C(=O)O)OC(C)=O)ccc2c1` (stereo not given in full), the inhibition in vivo at 67.4 mg/kg worked out at 32% in [15]; 64% in data set [16]; 30% in data set [17]; 70.5% in [18]; 46% in data set [20]. The Activity result in data set [19] is listed as “Non-toxic”.
`COc1ccc2cc(C(C)C(=O)OCC(OC(C)=O)C(OC(C)=O)C(OC(C)=O)C(/C=N/[C@@H](Cc3cnc[nH]3)C(=O)O)OC(C)=O)ccc2c1` (stereo not given in full): the inhibition in vivo at 67 mg/kg in [21] turned out to be 13%; in data set [22], 65.9%; in data set [23], 39%; in data set [24], 26%; in data set [25], 58%.
Take `COc1ccc2cc(C(C)C(=O)OCC(OC(C)=O)C(OC(C)=O)C(OC(C)=O)C(/C=N/[C@@H](CCCN)C(=O)O)OC(C)=O)ccc2c1` (stereo not given in full): the inhibition in vivo at 64.7 mg/kg in data set [26] was determined as 32%; in data set [27], 50%; in [28], 67%; in data set [29], 82%; in [30], 24%.
